The results in this text go back to US20240208992A1, “MACROCYCLES AS CFTR MODULATORS” (Idorsia Pharmaceuticals Ltd, priority 2021, published 2024).

The target in the test is human F508del-CFTR (Homo sapiens, UniProt P13569, DEL508-508). Nature of the test: F508del-CFTR cell surface expression (corrector activity), DiscoveRx ß-galactosidase complementation chemiluminescence assay in recombinant U2OS cell line.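 As to all read-outs here: U2OS cells co-expressing ProLink-tagged F508del-CFTR and a membrane-anchored enzyme acceptor, where more surface CFTR restores β-galactosidase activity measured by chemiluminescence.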 As to conditions: U2OS cell line, 16h compound incubation; for EC50: EC50, F508del-CFTR cell surface expression, geomean values; for Emax: U2OS, in relation to the Emax of the corrector lumacaftor (=100%), arithmetic mean values.
Chain of human F508del-CFTR (P13569 with tags, fused parts or gaps DEL508-508): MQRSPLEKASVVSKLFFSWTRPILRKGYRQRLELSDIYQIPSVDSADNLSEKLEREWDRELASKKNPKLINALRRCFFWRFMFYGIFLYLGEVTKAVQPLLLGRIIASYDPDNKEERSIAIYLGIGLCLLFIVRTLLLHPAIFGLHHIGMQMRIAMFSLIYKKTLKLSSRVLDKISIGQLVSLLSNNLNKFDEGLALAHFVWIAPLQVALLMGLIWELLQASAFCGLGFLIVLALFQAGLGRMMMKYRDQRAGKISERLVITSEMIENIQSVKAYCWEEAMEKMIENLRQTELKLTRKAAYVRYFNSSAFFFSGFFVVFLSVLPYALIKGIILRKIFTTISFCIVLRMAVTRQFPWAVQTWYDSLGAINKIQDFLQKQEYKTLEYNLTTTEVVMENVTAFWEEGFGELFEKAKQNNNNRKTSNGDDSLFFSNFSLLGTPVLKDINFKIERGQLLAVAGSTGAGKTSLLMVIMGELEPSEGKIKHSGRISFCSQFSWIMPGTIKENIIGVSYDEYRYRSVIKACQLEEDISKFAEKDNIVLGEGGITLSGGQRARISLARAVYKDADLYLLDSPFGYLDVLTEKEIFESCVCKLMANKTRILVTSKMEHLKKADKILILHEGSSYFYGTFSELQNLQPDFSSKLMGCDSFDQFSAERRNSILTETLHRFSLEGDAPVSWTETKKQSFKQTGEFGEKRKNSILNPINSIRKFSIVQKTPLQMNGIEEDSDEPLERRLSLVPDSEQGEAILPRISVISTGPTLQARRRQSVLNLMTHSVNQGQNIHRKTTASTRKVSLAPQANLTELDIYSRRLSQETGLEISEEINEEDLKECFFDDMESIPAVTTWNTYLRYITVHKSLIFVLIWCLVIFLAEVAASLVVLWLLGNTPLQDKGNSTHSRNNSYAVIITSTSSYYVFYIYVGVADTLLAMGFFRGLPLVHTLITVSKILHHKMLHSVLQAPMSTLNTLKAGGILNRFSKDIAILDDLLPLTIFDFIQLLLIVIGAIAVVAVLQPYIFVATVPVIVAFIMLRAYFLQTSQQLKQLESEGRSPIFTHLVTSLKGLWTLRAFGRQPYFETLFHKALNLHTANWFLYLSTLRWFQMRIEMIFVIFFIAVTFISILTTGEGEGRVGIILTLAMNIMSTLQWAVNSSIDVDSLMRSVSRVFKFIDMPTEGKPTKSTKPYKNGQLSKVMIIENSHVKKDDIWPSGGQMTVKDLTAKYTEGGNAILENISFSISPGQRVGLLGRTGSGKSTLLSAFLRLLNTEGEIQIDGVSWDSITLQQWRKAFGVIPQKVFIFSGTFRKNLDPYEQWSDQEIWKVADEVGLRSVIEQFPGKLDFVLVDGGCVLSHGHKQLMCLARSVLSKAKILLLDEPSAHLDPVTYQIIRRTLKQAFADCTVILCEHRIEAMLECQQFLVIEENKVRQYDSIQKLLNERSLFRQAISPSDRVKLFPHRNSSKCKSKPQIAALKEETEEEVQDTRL

Turning to `Cc1ccc2c(c1)C(=O)N[C@H](C(=O)NCCc1ccc3c(c1)OCO3)CC(=O)N(C)[C@@H](CC(C)C)C(=O)N(C)CC(=O)N[C@H](Cc1ccccc1)CO2` [Example 229, (3R,9S,13S)-N-(2-(benzo[d][1,3]dioxol-5-yl)ethyl)-3-benzyl-9-isobutyl-7,10,17-trimethyl-5,8,11,15-tetraoxo-2,3,4,5,6,7,8,9,10,11,12,13,14,15-tetradecahydrobenzo[p][1]oxa[4,7,10,14]tetraazacycloheptadecine-13-carboxamide], the concentration giving a half-maximal response (EC50) (usually the concentration at which the effect is half-maximal) was 279 nM and the Emax (usually the size of the effect at its maximum, as opposed to the concentration needed) is 117%.

On to `COc1cccc(CCNC(=O)[C@@H]2CC(=O)N(C)[C@@H](CC(C)C)C(=O)N(C)CC(=O)N[C@H](Cc3ccccc3)COc3ccc(C)cc3C(=O)N2)c1` [Example 230, (3R,9S,13S)-3-benzyl-9-isobutyl-N-(3-methoxyphenethyl)-7,10,17-trimethyl-5,8,11,15-tetraoxo-2,3,4,5,6,7,8,9,10,11,12,13,14,15-tetradecahydrobenzo[p][1]oxa[4,7,10,14]tetraazacycloheptadecine-13-carboxamide], for which the EC50 was 482 nM and the Emax was determined as 103%.

In the case of `COc1cccc(CCNC(=O)[C@@H]2CC(=O)N(C)[C@@H](CC(C)C)C(=O)N(C)CC(=O)N[C@H](Cc3ccccc3)COc3ccc(OC)cc3C(=O)N2)c1` [Example 231, (3R,9S,13S)-3-benzyl-9-isobutyl-17-methoxy-N-(3-methoxyphenethyl)-7,10-dimethyl-5,8,11,15-tetraoxo-2,3,4,5,6,7,8,9,10,11,12,13,14,15-tetradecahydrobenzo[p][1]oxa[4,7,10,14]tetraazacycloheptadecine-13-carboxamide], the 50% effective concentration (EC50) was found to be 592 nM and the maximal effect (Emax) is 173%.

Take `COc1cccc(CCNC(=O)[C@@H]2CC(=O)N(C)[C@@H](CC(C)C)C(=O)N(C)CC(=O)N[C@H](Cc3ccccc3)COc3cc(OC)ccc3C(=O)N2)c1` [Example 232, (3R,9S,13S)-3-benzyl-9-isobutyl-18-methoxy-N-(3-methoxyphenethyl)-7,10-dimethyl-5,8,11,15-tetraoxo-2,3,4,5,6,7,8,9,10,11,12,13,14,15-tetradecahydrobenzo[p][1]oxa[4,7,10,14]tetraazacycloheptadecine-13-carboxamide]: the EC50 was 526 nM and the Emax was 105%.

On to `COc1cccc(CCNC(=O)[C@@H]2CC(=O)N(C)[C@@H](CC(C)C)C(=O)N(C)CC(=O)N[C@H](Cc3ccccc3)COc3cc(C)ccc3C(=O)N2)c1` [Example 233, (3R,9S,13S)-3-benzyl-9-isobutyl-N-(3-methoxyphenethyl)-7,10,18-trimethyl-5,8,11,15-tetraoxo-2,3,4,5,6,7,8,9,10,11,12,13,14,15-tetradecahydrobenzo[p][1]oxa[4,7,10,14]tetraazacycloheptadecine-13-carboxamide], for which the EC50 stood at 610 nM and the maximal effect (Emax) was 92%.

Regarding `CC(C)C[C@H]1C(=O)N(C)CC(=O)N[C@H](Cc2ccccc2)COc2ccc(F)cc2C(=O)N[C@H](C(=O)NCCc2ccc3c(c2)OCO3)CC(=O)N1C` [Example 234, (3R,9S,13S)-N-(2-(benzo[d][1,3]dioxol-5-yl)ethyl)-3-benzyl-17-fluoro-9-isobutyl-7,10-dimethyl-5,8,11,15-tetraoxo-2,3,4,5,6,7,8,9,10,11,12,13,14,15-tetradecahydrobenzo[p][1]oxa[4,7,10,14]tetraazacycloheptadecine-13-carboxamide], the EC50 worked out at 471 nM and the Emax came out at 110%.

For the molecule `Cc1cccc2c1C(=O)N[C@H](C(=O)NCCc1ccc3c(c1)OCO3)CC(=O)N(C)[C@@H](CC(C)C)C(=O)N(C)CC(=O)N[C@H](Cc1ccccc1)CO2` [Example 235, (3R,9S,13S)-N-(2-(benzo[d][1,3]dioxol-5-yl)ethyl)-3-benzyl-9-isobutyl-7,10,16-trimethyl-5,8,11,15-tetraoxo-2,3,4,5,6,7,8,9,10,11,12,13,14,15-tetradecahydrobenzo[p][1]oxa[4,7,10,14]tetraazacycloheptadecine-13-carboxamide], the concentration giving a half-maximal response (EC50) was 825 nM and the maximum response (Emax) was found to be 117%.

In the case of `CC(C)C[C@H]1C(=O)N(C)CC(=O)N[C@H](Cc2ccccc2)COc2cc3ccccc3cc2C(=O)N[C@H](C(=O)NCCc2ccc3c(c2)OCO3)CC(=O)N1C` [Example 236, (3R,9S,13S)-N-(2-(benzo[d][1,3]dioxol-5-yl)ethyl)-3-benzyl-9-isobutyl-7,10-dimethyl-5,8,11,15-tetraoxo-2,3,4,5,6,7,8,9,10,11,12,13,14,15-tetradecahydronaphtho[2,3-p][1]oxa[4,7,10,14]tetraazacycloheptadecine-13-carboxamide], the EC50 worked out at 435 nM and the maximal effect (Emax) came out at 126%.

For the molecule `COc1cccc(CCNC(=O)[C@@H]2CC(=O)N(C)[C@@H](CC(C)C)C(=O)N(C)CC(=O)N[C@H](Cc3ccccc3)COc3ccc(Cl)cc3C(=O)N2)c1` [Example 237, (3R,9S,13S)-3-benzyl-17-chloro-9-isobutyl-N-(3-methoxyphenethyl)-7,10-dimethyl-5,8,11,15-tetraoxo-2,3,4,5,6,7,8,9,10,11,12,13,14,15-tetradecahydrobenzo[p][1]oxa[4,7,10,14]tetraazacycloheptadecine-13-carboxamide], the EC50 stood at 300 nM and the Emax came out at 128%.

As to `COc1cccc(CCNC(=O)[C@@H]2CC(=O)N(C)[C@@H](CC(C)C)C(=O)N(C)CC(=O)N[C@H](Cc3ccccc3)COc3cc4ccccc4cc3C(=O)N2)c1` [Example 238, (3R,9S,13S)-3-benzyl-9-isobutyl-N-(3-methoxyphenethyl)-7,10-dimethyl-5,8,11,15-tetraoxo-2,3,4,5,6,7,8,9,10,11,12,13,14,15-tetradecahydronaphtho[2,3-p][1]oxa[4,7,10,14]tetraazacycloheptadecine-13-carboxamide], the concentration for a half-maximal effect (EC50) amounted to 375 nM and the maximum response (Emax) worked out at 153%.

Turning to `CCc1ccc(CCNC(=O)[C@@H]2CC(=O)N(C)[C@@H](CC(C)C)C(=O)N(C)CC(=O)N[C@H](Cc3ccccc3)COc3cccc(OC)c3C(=O)N2)cc1` [Example 239, (3R,9S,13S)-3-benzyl-N-(4-ethylphenethyl)-9-isobutyl-16-methoxy-7,10-dimethyl-5,8,11,15-tetraoxo-2,3,4,5,6,7,8,9,10,11,12,13,14,15-tetradecahydrobenzo[p][1]oxa[4,7,10,14]tetraazacycloheptadecine-13-carboxamide], the EC50 stood at 514 nM and the maximum response (Emax) is 142%.

For the molecule `COc1cccc(CCNC(=O)[C@@H]2CC(=O)N(C)[C@@H](CC(C)C)C(=O)N(C)CC(=O)N[C@H](Cc3ccccc3)COc3ccsc3C(=O)N2)c1` [Example 240, (6R,12S,16S)-6-benzyl-12-isobutyl-N-(3-methoxyphenethyl)-10,13-dimethyl-8,11,14,18-tetraoxo-5,6,7,8,9,10,11,12,13,14,15,16,17,18-tetradecahydrothieno[2,3-p][1]oxa[4,7,10,14]tetraazacycloheptadecine-16-carboxamide], the concentration for a half-maximal effect (EC50) amounted to 1260 nM and the Emax was found to be 77%.

Regarding `COc1cccc(CCNC(=O)[C@@H]2CC(=O)N(C)[C@@H](CC(C)C)C(=O)N(C)CC(=O)N[C@H](Cc3ccccc3)COc3nc(C)sc3C(=O)N2)c1` [Example 241, (6R,12S,16S)-6-benzyl-12-isobutyl-N-(3-methoxyphenethyl)-2,10,13-trimethyl-8,11,14,18-tetraoxo-5,6,7,8,9,10,11,12,13,14,15,16,17,18-tetradecahydrothiazolo[5,4-p][1]oxa[4,7,10,14]tetraazacycloheptadecine-16-carboxamide], the EC50 amounted to 1660 nM and the maximal effect (Emax) is 92%.

Take `[2H]C([2H])([2H])Oc1cccc2c1C(=O)N[C@H](C(=O)NCCc1ccc3c(c1)OCO3)CC(=O)N(C)[C@@H](CC(C)C)C(=O)N(CCC1CCCCC1)CC(=O)N[C@H](Cc1ccccc1)CO2` [Example 242, (3R,9S,13S)-N-(2-(benzo[d][1,3]dioxol-5-yl)ethyl)-3-benzyl-7-(2-cyclohexylethyl)-9-isobutyl-16-(methoxy-d3)-10-methyl-5,8,11,15-tetraoxo-2,3,4,5,6,7,8,9,10,11,12,13,14,15-tetradecahydrobenzo[p][1]oxa[4,7,10,14]tetraazacycloheptadecine-13-carboxamide]: the EC50 came out at 177 nM and the Emax turned out to be 232%.

Turning to `[2H]C([2H])([2H])Oc1cccc2c1C(=O)N[C@H](C(=O)NCCc1cccc(OC)c1)CC(=O)N(C)[C@@H](CC(C)C)C(=O)N(CCC1CCCCC1)CC(=O)N[C@H](Cc1ccccc1)CO2` [Example 243, (3R,9S,13S)-3-benzyl-7-(2-cyclohexylethyl)-9-isobutyl-16-(methoxy-d3)-N-(3-methoxyphenethyl)-10-methyl-5,8,11,15-tetraoxo-2,3,4,5,6,7,8,9,10,11,12,13,14,15-tetradecahydrobenzo[p][1]oxa[4,7,10,14]tetraazacycloheptadecine-13-carboxamide], the EC50 amounted to 181 nM and the Emax was 232%.

`[2H]C([2H])([2H])Oc1cccc(CCNC(=O)[C@@H]2CC(=O)N(C)[C@@H](CC(C)C)C(=O)N(CCC3CCCCC3)CC(=O)N[C@H](Cc3ccccc3)COc3cccc(OC([2H])([2H])[2H])c3C(=O)N2)c1` [Example 244, (3R,9S,13S)-3-benzyl-7-(2-cyclohexylethyl)-9-isobutyl-16-(methoxy-d3)-N-(3-(methoxy-d3)phenethyl)-10-methyl-5,8,11,15-tetraoxo-2,3,4,5,6,7,8,9,10,11,12,13,14,15-tetradecahydrobenzo[p][1]oxa[4,7,10,14]tetraazacycloheptadecine-13-carboxamide]: the 50% effective concentration (EC50) was determined as 177 nM and the Emax was found to be 239%.
